Results on 5 compounds are retold here after patent US8753875B2, “Compositions and means for diagnosing microbial infections” (priority 2007, dated 2014).

Like-named read-outs stand apart in the source and are kept apart here.

Assay [1] concerns E. coli. Conditions: 1142 E. coli outpatient urinary isolates, USA and Canada; cited from earlier work.
Assay [2] concerns E. coli. As to conditions: cited from earlier work.
For assay [3], the system named is E. coli. As to the kind of experiment: Growth of E. coli in antibiotic compartments of the platform (FIG. 3). It counts as cell-based. Conditions: illustrated E. coli of FIG. 3. An excerpt:
The photos show growth of E. coli at different quantities of bacteria/ml urine.

For the next assay, the system named is P. aureginosa. As to the kind of experiment: Growth on Flexicult plate, susceptibility/resistance to the five antibiotics (FIG. 4, Table A). It counts as cell-based. The text has this:
(§1) The kit was developed for urine culture in the primary health care setting. It is designed preferably as a nine cm Petri dish divided into six compartments: One larger compartment for quantitative analysis and five smaller compartments for susceptibility testing. The agar in each small compartment contains one of five antimicrobials (for Denmark and Scandinavia preferably: trimethoprim, sulfamethizole, ampicillin, nitrofurantoin and mecillinam (amdinocillin)) at a concentration adjusted to the breakpoint, such that growth in these compartments indicates resistance, and no growth indicates susceptibility. The Petri dish preferably has higher sides, approximately 2.48 cm, than the usual dish, i.e. ca. 1.48 cm. This allows a larger amount, maximum 100 ml, of urine to be poured onto the dish for inoculation.
(§2) Reading the susceptibility of the bacterial growth: Each bacterium (if more than one) is read individually: The growth in each of the antibiotic fields is compared with the growth on the control agar. […] If there is no growth (or substantially less than the control agar), then the bacterium is considered to be susceptible to the antibiotic. […] When nitrofurantoin and mecillinam are used as antibiotics, a few single colonies may be seen of the same type as the bacterium on the control agar: These are not considered to be resistant mutants but “persisters,” i.e. if retested they will appear susceptible. This is commonly seen also by disc diffusion especially for mecillinam.

Another assay deals with Enterobacter spp. Described as above. The assay is classed as cell-based.
Excerpt: as §1, §2

For a further assay, the system named is E. faecalis. The description is as above. The assay is classed as cell-based.
Excerpt: as §1, §2

The next assay relates to Morganella spp. The description is as above. The assay is classed as cell-based.
Excerpt: as §1, §2

The test system of another assay is Klebsiella spp. The description is as above. The assay is classed as cell-based.
Excerpt: as §1, §2

Assay [4] deals with E. coli. The assay is described as above. It counts as cell-based.
Excerpt: as §1, §2

The test system of the next assay is Candida spp. The description is as above. It counts as cell-based.
Excerpt: as §1, §2

The subject of the next assay is Proteus mirabilis. The assay is described as above. The assay is classed as cell-based.
Excerpt: as §1, §2

The test system of the next assay is Citrobacter spp. The description is as above. It counts as cell-based.
Excerpt: as §1, §2

The subject of another assay is E. faecium. The description is as above. The assay is classed as cell-based.
Excerpt: as §1, §2

In a further assay the test system is P. vulgaris. The assay is described as above. It counts as cell-based.
Excerpt: as §1, §2

The test system of the next assay is S. saprophyticus. The description is as above. The assay is classed as cell-based.
Excerpt: as §1, §2

For the compound trimethoprim/sulfamethoxazole [SXT], the “Overall resistance in E. coli” value with E. coli [1] is 21.3%. Besides, the “Antimicrobial resistance of E. coli (resistance in percent)” value in the assay on E. coli [2] (Austria, n 126) was 9.5%; in the assay on E. coli [2] (Belgium, n 137), 14.6%; with E. coli [2] (Canada, n 166), 12.0%; in the assay with E. coli [2] (Denmark, n 85), 8.2%; with E. coli [2] (Finland, n 182) it was 4.9%; in the assay on E. coli [2] (France, n 199), 15.1%. Besides, the “Antimicrobial resistance of E. coli (resistance in percent)” value with E. coli [2] (Germany, n 138) was 21.0%; with E. coli [2] (Greece, n 132), 11.4%; in the assay on E. coli [2] (Ireland, n 154) it was 20.8%; in the assay on E. coli [2] (Luxembourg, n 24), 16.7%; in the assay with E. coli [2] (Norway, n 168) it was 11.3%; in the assay on E. coli [2] (Portugal, n 86) it was 26.7%. Further, the “Antimicrobial resistance of E. coli (resistance in percent)” value in the assay with E. coli [2] (Spain, n 191) is recorded as 25.7%; in the assay on E. coli [2] (Sweden, n 193), 8.3%; in the assay on E. coli [2] (Switzerland, n 122) it was 18.9%; in the assay on E. coli [2] (The Netherlands, n 195), 10.3%; in the assay with E. coli [2] (Total, n 2478), 14.1%; in the assay on E. coli [2] (United Kingdom, n 180), 12.2%.
Consider `C[C@H]1COc2c(N3CCN(C)CC3)c(F)cc3c(=O)c(C(=O)O)cn1c23` [levofloxacin, (−)-(S)-9-fluoro-2,3-dihydro-3-methyl-10-(4-methyl-1-piperazinyl)-7-oxo-7H-pyrido [1,2,3-de]-1,4-benzoxazine-6-carboxylic acid], for which the “Overall resistance in E. coli” value with E. coli [1] is listed as 5.1%.
For the compound `Cc1nnc(NS(=O)(=O)c2ccc(N)cc2)s1` [Sulfamethizole], the “resistant or susceptible (growth in antibiotic compartment)” value with E. coli [3] is reported as “resistant”. Moreover, the “Susceptibility = S or Resistance = R” value was “R” in the assay with P. aureginosa; “R” in the assay on Enterobacter spp; “R” in the assay on E. faecalis; “S” with Morganella spp.; “S” with Klebsiella spp.; “R” with E. coli [4]. The “Susceptibility = S or Resistance = R” value is on record as “R” in the assay with Candida spp.; “S” with Proteus mirabilis; “S” with Citrobacter spp.; “R” in the assay with E. faecium; “S” in the assay on P. vulgaris; “S” with S. saprophyticus.
`O=C(O)c1cn(C2CC2)c2cc(N3CCNCC3)c(F)cc2c1=O` [CIP, 1-cyclopropyl-6-fluoro-4-oxo-7-piperazin-1-yl-quinoline-3-carboxylic acid]: the “Overall resistance in E. coli” value in the assay on E. coli [1] is recorded as 5.5%. Moreover, the “Antimicrobial resistance of E. coli (resistance in percent)” value was 0% with E. coli [2] (Austria, n 126); 2.9% in the assay with E. coli [2] (Belgium, n 137); 0% in the assay on E. coli [2] (Canada, n 166); 0% with E. coli [2] (Denmark, n 85); 0.5% in the assay with E. coli [2] (Finland, n 182); 2.0% in the assay on E. coli [2] (France, n 199). In addition, the “Antimicrobial resistance of E. coli (resistance in percent)” value with E. coli [2] (Germany, n 138) is 2.2%; in the assay with E. coli [2] (Greece, n 132), 1.5%; with E. coli [2] (Ireland, n 154), 0%; in the assay with E. coli [2] (Luxembourg, n 24), 4.2%; in the assay on E. coli [2] (Norway, n 168) it was 0%; with E. coli [2] (Portugal, n 86), 5.8%. Further, the “Antimicrobial resistance of E. coli (resistance in percent)” value in the assay with E. coli [2] (Spain, n 191) was 14.7%; with E. coli [2] (Sweden, n 193), 0%; in the assay with E. coli [2] (Switzerland, n 122), 2.5%; in the assay on E. coli [2] (The Netherlands, n 195), 2.1%; with E. coli [2] (Total, n 2478), 2.3%; with E. coli [2] (United Kingdom, n 180) it was 0.6%.
Regarding `CC1=C(C(=O)O)N2C(=O)C(NC(=O)C(N)c3ccc(O)cc3)C2SC1` (stereo not shown) [CFR, 8-[2-amino-2-(4-hydroxyphenyl)-acetyl]amino-4-methyl-7-oxo-2-thia-6-azabicyclo [4.2.0] oct-4-ene-5-carboxylic acid], the “Antimicrobial resistance of E. coli (resistance in percent)” value in the assay with E. coli [2] (Austria, n 126) was 0.8%; with E. coli [2] (Belgium, n 137) it was 0.7%; in the assay with E. coli [2] (Canada, n 166) it was 1.8%; with E. coli [2] (Denmark, n 85), 1.2%; with E. coli [2] (Finland, n 182), 1.6%; with E. coli [2] (France, n 199), 1.0%. The “Antimicrobial resistance of E. coli (resistance in percent)” value in the assay on E. coli [2] (Germany, n 138) is 1.4%; in the assay on E. coli [2] (Greece, n 132), 3.0%; in the assay with E. coli [2] (Ireland, n 154) it was 0.6%; with E. coli [2] (Luxembourg, n 24), 0%; in the assay on E. coli [2] (Norway, n 168), 2.4%; in the assay on E. coli [2] (Portugal, n 86), 2.3%. Besides, the “Antimicrobial resistance of E. coli (resistance in percent)” value in the assay on E. coli [2] (Spain, n 191) is recorded as 3.1%; in the assay with E. coli [2] (Sweden, n 193) it was 5.2%; with E. coli [2] (Switzerland, n 122), 0.8%; in the assay with E. coli [2] (The Netherlands, n 195), 4.6%; in the assay on E. coli [2] (Total, n 2478), 2.1%; with E. coli [2] (United Kingdom, n 180), 1.7%.
